Consider 30 molecules from patent US8344008B2 (Janssen Pharmaceutica NV, priority 2007, dated 2013).

By Ki is commonly meant the dissociation constant of the complex between target and ligand, obtained from inhibition or displacement.

Counter-ions that a name gives are not always drawn.

The assay addresses T1, recombinant human LTA4 hydrolase (rhLTA4H) (Homo sapiens, UniProt P09960).
T1 construct: made in house; host or cells: Spodoptera frugiperda (Sf-9) cells, baculovirus (pFastBac1)
T1 sequence (P09960 1-611): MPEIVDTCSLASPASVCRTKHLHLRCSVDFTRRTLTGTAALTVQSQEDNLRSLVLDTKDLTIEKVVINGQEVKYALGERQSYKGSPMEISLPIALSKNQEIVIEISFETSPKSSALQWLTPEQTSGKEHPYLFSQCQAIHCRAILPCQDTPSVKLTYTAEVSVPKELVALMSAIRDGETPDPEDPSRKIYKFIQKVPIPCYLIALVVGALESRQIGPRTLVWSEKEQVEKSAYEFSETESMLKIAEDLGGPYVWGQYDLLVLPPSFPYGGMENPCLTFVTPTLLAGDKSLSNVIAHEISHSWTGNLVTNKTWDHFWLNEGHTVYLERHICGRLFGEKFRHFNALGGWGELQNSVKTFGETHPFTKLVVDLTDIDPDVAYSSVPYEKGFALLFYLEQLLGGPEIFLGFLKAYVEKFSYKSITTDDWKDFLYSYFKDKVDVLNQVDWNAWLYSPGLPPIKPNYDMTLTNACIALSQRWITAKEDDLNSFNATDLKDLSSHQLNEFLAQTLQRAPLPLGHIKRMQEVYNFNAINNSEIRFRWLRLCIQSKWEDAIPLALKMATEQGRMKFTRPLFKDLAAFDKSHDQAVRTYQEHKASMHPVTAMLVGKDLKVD
In words: Recombinant Human LTA4 Hydrolase Assay for LTA4 Hydrolase Inhibitor Activity. Particulars: average of results obtained; LTB4 quantified by enzyme-linked immunoassay. It counts as biochemical. Put shortly:
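LTB4 formation, quantified by EIA after 10 min at rt, was the read-out once 9 ng LTA4 (free acid) was added to recombinant human enzyme (36 ng, Sf-9 expressed) that had sat 10 min with compound. Buffer: 0.1 M potassium phosphate pH 7.4 with fatty-acid-free BSA; IC50 by 4-parameter fit.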
Take `CS(=O)(=O)N1[C@@H]2CC[C@H]1C[C@H](NCCOc1ccc(Oc3nc4c(F)cccc4s3)cc1)C2` [Example 217, meso-exo-{2-[4-(4-Fluoro-benzothiazol-2-yloxy)-phenoxy]-ethyl}-(8-methanesulfonyl-8-aza-bicyclo[3.2.1]oct-3-yl)-amine]: the Ki is 30 nM.

With `O=S(=O)(C1CC1)N1CC2CN(Cc3ccc(Oc4nc5ccccc5s4)cc3)CC2C1` (stereo not drawn) [Example 126, 2-[4-(5-Cyclopropanesulfonyl-hexahydro-pyrrolo[3,4-c]pyrrol-2-ylmethyl)-phenoxy]-benzothiazole], the Ki worked out at 17 nM.

Turning to `O=C(c1ccco1)N1CC2CN(Cc3ccc(Oc4nc5ccccc5s4)cc3)CC2C1` (stereo not drawn) [Example 106, {5-[4-(Benzothiazol-2-yloxy)-benzyl]-hexahydro-pyrrolo[3,4-c]pyrrol-2-yl}-furan-2-yl-methanone], the Ki amounted to 3 nM.

As to `CC(C)(O)C(=O)N1C[C@@H]2C[C@H]1CN2CCOc1ccc(Oc2nc3ccccc3s2)cc1` [Example 25, (S,S)-1-(5-{2-[4-(Benzothiazol-2-yloxy)-phenoxy]-ethyl}-2,5-diaza-bicyclo[2.2.1]hept-2-yl)-2-hydroxy-2-methyl-propan-1-one], the Ki stood at 8 nM.

Take `CS(=O)(=O)N[C@H]1C[C@H]2CC[C@@H](C1)N2Cc1ccc(Oc2nc3cc(F)ccc3s2)cc1` [Example 208, meso-endo-N-{8-[4-(5-Fluoro-benzothiazol-2-yloxy)-benzyl]-8-aza-bicyclo[3.2.1]oct-3-yl}-methanesulfonamide]: the Ki is 22 nM.

For the molecule `CC(=O)N1C[C@H]2C[C@@H]1CN2CCOc1ccc(Oc2nc3ccc(C)cc3s2)cc1` [Example 180, (R,R)-1-(5-{2-[4-(6-Methyl-benzothiazol-2-yloxy)-phenoxy]-ethyl}-2,5-diaza-bicyclo[2.2.1]hept-2-yl)-ethanone], the Ki was determined as 124 nM.

Consider `NC(=O)N[C@H]1C[C@H]2CC[C@@H](C1)N2CCc1ccc(Oc2nc3cccc(F)c3s2)cc1` [Example 190, meso-endo-(8-{2-[4-(7-Fluoro-benzothiazol-2-yloxy)-phenyl]-ethyl}-8-aza-bicyclo[3.2.1]oct-3-yl)-urea], for which the Ki was determined as 16 nM.

Regarding `NC(=O)N1CC2CN(Cc3ccc(Oc4nc5ccccc5s4)cc3F)CC2C1` (stereo not drawn) [Example 159, 5-[4-(Benzothiazol-2-yloxy)-2-fluoro-benzyl]-hexahydro-pyrrolo[3,4-c]pyrrole-2-carboxylic acid amide], the inhibition constant (Ki) was found to be 110 nM.

In the case of `CC(=O)NC1[C@H]2CN(Cc3ccc(Oc4nc5ccccc5s4)cc3)C[C@@H]12` (stereo partly drawn) [Example 93, (R,S)—N-{3-[4-(Benzothiazol-2-yloxy)-benzyl]-3-aza-bicyclo[3.1.0]hex-6-yl}-acetamide], the Ki is 34 nM.

In the case of `CC(=O)N1CC2CCN(Cc3ccc(Oc4nc5ccccc5s4)cc3)C2C1` (stereo not drawn) [Example 86, 1-{1-[4-(Benzothiazol-2-yloxy)-benzyl]-hexahydro-pyrrolo[3,4-b]pyrrol-5-yl}-ethanone], the Ki was determined as 55 nM.

`O=C(CO)N1CC2CCN(Cc3ccc(Oc4nc5ccccc5s4)cc3)CC2C1` (stereo not drawn) [Example 117, 1-{5-[4-(Benzothiazol-2-yloxy)-benzyl]-octahydro-pyrrolo[3,4-c]pyridin-2-yl}-2-hydroxy-ethanone]: the Ki was 20 nM.

In the case of `CS(=O)(=O)N1C[C@H]2C[C@@H]1CN2CCOc1ccc(Oc2nc3ccccc3s2)cc1` [Example 223, (R,R)-2-{4-[2-(5-Methanesulfonyl-2,5-diaza-bicyclo[2.2.1]hept-2-yl)-ethoxy]-phenoxy}-benzothiazole], the Ki amounted to 64 nM.

Take `NC(=O)N[C@H]1C[C@H]2CC[C@@H](C1)N2Cc1ccc(Cc2nc3ccccc3s2)cc1` [Example 36, meso-endo-[8-(4-Benzothiazol-2-ylmethyl-benzyl)-8-aza-bicyclo[3.2.1]oct-3-yl]-urea]: the Ki was 94 nM.

Consider `O=C([C@H]1CCCO1)N1CC2CN(Cc3ccc(Oc4nc5ccccc5s4)cc3)CC2C1` (stereo partly drawn) [Example 100, (R)-{5-[4-(Benzothiazol-2-yloxy)-benzyl]-hexahydro-pyrrolo[3,4-c]pyrrol-2-yl}-(tetrahydro-furan-2-yl)-methanone], for which the Ki amounted to 168 nM.

For the molecule `O=C(N1C[C@@H]2C[C@H]1CN2CCc1cccc(Oc2nc3ccccc3s2)c1)C1(O)CC1` [Example 18, (S,S)-(5-{2-[3-(Benzothiazol-2-yloxy)-phenyl]-ethyl}-2,5-diaza-bicyclo[2.2.1]hept-2-yl)-(1-hydroxy-cyclopropyl)-methanone], the Ki worked out at 66 nM.

For `O=C(c1ccoc1)N1CC2CN(Cc3ccc(Oc4nc5ccccc5s4)cc3)CC2C1` (stereo not drawn) [Example 110, {5-[4-(Benzothiazol-2-yloxy)-benzyl]-hexahydro-pyrrolo[3,4-c]pyrrol-2-yl}-furan-3-yl-methanone], the Ki is 88 nM.

As for `c1ccc2sc(Cc3ccc(CN4C[C@@H]5C[C@H]4CN5)cc3)nc2c1` [Example 4D, (S,S)-2-[4-(2,5-Diaza-bicyclo[2.2.1]hept-2-ylmethyl)-benzyl]-benzothiazole dihydrochloride], the Ki is 260 nM.

Consider `Cc1ccc2nc(Oc3ccc(CCN4C5CCC4CN(S(C)(=O)=O)C5)cc3)sc2c1` [Example 214, meso-2-{4-[2-(3-Methanesulfonyl-3,8-diaza-bicyclo[3.2.1]oct-8-yl)-ethyl]-phenoxy}-6-methyl-benzothiazole], for which the Ki was determined as 543 nM.

With `NC(=O)N1C[C@H]2C[C@@H]1CN2CCc1ccc(Oc2nc3ccccc3s2)cc1` [Example 280, (R,R)-5-{2-[4-(Benzothiazol-2-yloxy)-phenyl]-ethyl}-2,5-diaza-bicyclo[2.2.1]heptane-2-carboxylic acid amide], the Ki came out at 11 nM.

With `NC(=O)N[C@@H]1C[C@H]2CC[C@@H](C1)N2Cc1ccc(Oc2nc3cc(F)ccc3s2)cc1` [Example 260, meso-exo-{8-[4-(5-Fluoro-benzothiazol-2-yloxy)-benzyl]-8-aza-bicylclo[3.2.1]oct-3-yl}-urea], the Ki is 26 nM.

`CS(=O)(=O)N1CC2CN(Cc3ccc(Cc4nc5ccccc5s4)cc3)CC2C1` (stereo not drawn) [Example 150, 2-[4-(5-Methanesulfonyl-hexahydro-pyrrolo[3,4-c]pyrrol-2-ylmethyl)-benzyl]-benzothiazole]: the Ki is 193 nM.

As for `CS(=O)(=O)N1[C@@H]2CC[C@H]1C[C@H](NCCOc1ccc(Oc3nc4c(F)cccc4s3)cc1)C2` [Example 213, meso-exo-{2-[4-(4-Fluoro-benzothiazol-2-yloxy)-phenoxy]-ethyl}-(8-methanesulfonyl-8-aza-bicyclo[3.2.1]oct-3-yl)-amine], the Ki came out at 20 nM.

Turning to `CC(=O)N[C@H]1C[C@H]2CC[C@@H](C1)N2CCOc1ccc(Oc2nc3c(F)cccc3s2)cc1` [Example 273, meso-endo-N-(8-{2-[4-(4-Fluoro-benzothiazol-2-yloxy)-phenoxy]-ethyl}-8-aza-bicyclo[3.2.1]oct-3-yl)-acetamide], the Ki turned out to be 16 nM.

Turning to `CC(C)(O)C(=O)N1C[C@@H]2C[C@H]1CN2CCc1cccc(Oc2nc3ccccc3s2)c1` [Example 19, (S,S)-1-(5-{2-[3-(Benzothiazol-2-yloxy)-phenyl]-ethyl}-2,5-diaza-bicyclo[2.2.1]hept-2-yl)-2-hydroxy-2-methyl-propan-1-one], the Ki was 163 nM.

Regarding `CC(=O)N1[C@@H]2CC[C@H]1C[C@@H](NCCOc1ccc(Oc3nc4ccc(C)cc4s3)cc1)C2` [Example 172, meso-exo-1-(3-{2-[4-(6-Methyl-benzothiazol-2-yloxy)-phenoxy]-ethylamino}-8-aza-bicyclo[3.2.1]oct-8-yl)-ethanone], the Ki came to 1050 nM.

With `CS(=O)(=O)N[C@@H]1C[C@H]2CC[C@@H](C1)N2CCc1ccc(Oc2nc3ccc(F)cc3s2)cc1` [Example 231, meso-exo-N-(8-{2-[4-(6-Fluoro-benzothiazol-2-yloxy)-phenyl]-ethyl}-8-aza-bicyclo[3.2.1]oct-3-yl)-methanesulfonamide], the Ki worked out at 17 nM.

On to `O=C(c1ccc[nH]1)N1C[C@@H]2C[C@H]1CN2Cc1ccc(Oc2nc3ccccc3s2)cc1` [Example 62, (S,S)-{5-[4-(Benzothiazol-2-yloxy)-benzyl]-2,5-diaza-bicyclo[2.2.1]hept-2-yl}-(1H-pyrrol-2-yl)-methanone], for which the Ki was 36 nM.

On to `NC(=O)N[C@H]1C[C@H]2CC[C@@H](C1)N2CCc1ccc(Oc2nc3ccc(Cl)cc3s2)cc1` [Example 239, meso-endo-(8-{2-[4-(6-Chloro-benzothiazol-2-yloxy)-phenyl]-ethyl}-8-aza-bicyclo[3.2.1]oct-3-yl)-urea], for which the Ki was found to be 130 nM.

For `CC(=O)N1CC2CCC(C1)N2CCOc1ccc(Oc2nc3cccc(Cl)c3s2)cc1` [Example 283, meso-1-(8-{2-[4-(7-Chloro-benzothiazol-2-yloxy)-phenoxy]-ethyl}-3,8-diaza-bicyclo[3.2.1]oct-3-yl)-ethanone], the Ki amounted to 338 nM.

As to `NC(=O)N1CC2CN(Cc3ccc(Oc4nc5ccccc5s4)cc3)CC2C1` (stereo not drawn) [Example 139, 5-[4-(Benzothiazol-2-yloxy)-benzyl]-hexahydro-pyrrolo[3,4-c]pyrrole-2-carboxylic acid amide], the Ki is 3 nM.
